Where a name gives a salt, the structure may show the parent alone. Read-outs that look alike come from different tables or passages of the source.
Legend:
[1] = system: Pseudomonas aeruginosa A9843A; assay type: in vivo, mice; details: intramuscular, mice; as effective as combination 1.25 mg./kg. BL-P1908 + 2 mg./kg. amikacin
Pseudomonas aeruginosa [2] = assay: In vitro bactericidal synergism, broth dilution checkerboard; assay type: cell-based; details: for MBC: Pseudomonas aeruginosa, drug alone
Pseudomonas aeruginosa [3] = details: prior art; cited from earlier work

In the case of NCC[C@H](O)C(=O)N[C@@H]1C[C@H](N)[C@@H](O[C@H]2O[C@H](CN)[C@@H](O)[C@H](O)[C@H]2O)[C@H](O)[C@H]1O[C@H]1O[C@H](CO)[C@@H](O)[C@H](N)[C@H]1O [Amikacin, 1-[L-(-)-γ-amino-α-hydroxybutryl]kanamycin A], the “equally effective dosage, drug alone” value [1] is reported as 8 mg/kg, the MBC (Pseudomonas aeruginosa [2]; strain A20552, read-out: Minimum Bactericidal Concentration) is reported as 8 µg/mL and the MBC (Pseudomonas aeruginosa [2]; strain A21509, read-out: Minimum Bactericidal Concentration) is reported as 125 µg/mL. The MBC (Pseudomonas aeruginosa [2]; strain A21510, read-out: Minimum Bactericidal Concentration) was 64 µg/mL, the strain sensitivity (Pseudomonas aeruginosa [2]; strain A9843A) was “sensitive” and the strain sensitivity (Pseudomonas aeruginosa [2]; strain A20480) was “sensitive”. The strain sensitivity (Pseudomonas aeruginosa [2]; strain A20552) was “sensitive”, the strain sensitivity (Pseudomonas aeruginosa [2]; strain A20620) was “resistant” and the strain sensitivity (Pseudomonas aeruginosa [2]; strain A21509) was “resistant”. For the same molecule, the strain sensitivity (Pseudomonas aeruginosa [2]; strain A21510) was “resistant”.
With NCC[C@H](O)C(=O)N[C@@H]1C[C@H](N)[C@@H](O[C@H]2O[C@H](CN)[C@@H](O)[C@H](O)[C@H]2O)[C@H](O)[C@H]1O[C@H]1O[C@H](CO)[C@@H](O)[C@H](N)[C@H]1O [amikacin sulfate] the MBC (Pseudomonas aeruginosa [2]; read-out: Minimum Bactericidal Concentration, strain A9843A) was 4 µg/mL.
For CC1(C)S[C@@H]2[C@H](NC(=O)C(c3ccccc3)S(=O)(=O)O)C(=O)N2[C@H]1C(=O)O (stereo partly shown) [sulbenicillin], the “potency against Pseudomonas aeruginosa” value (Pseudomonas aeruginosa [3]) is listed as “relatively low potency”.
For CC1(C)S[C@@H]2[C@H](NC(=O)[C@H](C(=O)O)c3ccsc3)C(=O)N2[C@H]1C(=O)O [ticarcillin], the “potency against Pseudomonas aeruginosa” value (Pseudomonas aeruginosa [3]) is listed as “relatively low potency”.
